Tests used:
[1] = system: streptozotocin-pretreated male Sprague-Dawley rats (experimental diabetes, type 1 diabetic condition); assay: Example 1b: blood glucose over 6 h after SGLT2 inhibitor, insulin glargine or combination; format: in vivo, rat; settings: six hours after administration, Cpd. A 10 mg/kg oral, insulin glargine 1.5 μl/animal s.c.; for reduction of blood glucose versus control: combination at the same doses, 3-h fasted STZ rats; for statistical difference of blood glucose versus control: combination same doses
Procedure: All experimental protocols concerning the use of laboratory animals were reviewed by a federal Ethics Committee and approved by governmental authorities. Two weeks before the study starts, the rats were pretreated with a single dose of 60 mg/kg i.p. of streptozotocin to induced experimental diabetes, resembling a type 1 diabetic condition. During the study blood glucose was followed over 6 h in male, 3-h fasted Sprague-Dawley rats (Crl:CD) with an age of 8-9 weeks at the start of the study. A pre-dose blood sample was obtained by tail bleed for randomization and blood glucose was measured with a glucometer 30, 60, 90 min and 2, 3, 4, 5, 6 hours after administration of insulin and/or the SGLT2 inhibitor. At time point 0 min, the animals (n=4-6 per group) were injected either with insulin glargine or isotonic NaCl subcutaneously. Simultaneously all animals received oral administrations of either vehicle alone (0.5% aqueous hydroxyethylcellulose) or this vehicle containing the SGLT2 inhibitor. The data are presented as mean±S.E.M. Statistical comparison was conducted by repeated measures two-way ANOVA followed by Bonferroni post tests for group-wise comparisons. A p value <0.05 was considered to show a statistically significant difference. The term “Cpd. A” denotes the SGLT2 inhibitor compound (1.9) at a dose of 10 mg/kg. Insulin glargine was administered at a dose of 1.5 μl/animal. The term “Cpd. A+Insulin glargine” denotes the combination of the SGLT2 inhibitor compound (1.9) and insulin glargine at the same doses. P values versus control are indicated by asterisks and p values of the monotherapies versus the combination are indicated by crosses (one symbol, p<0.05; two symbols, p<0.01; three symbols, p<0.001). Six hours after administration, the SGLT2 inhibitor had reduced blood glucose by 13% versus control, and insulin glargine by 22%.

[2] = system: streptozotocin-pretreated male Sprague-Dawley rats (experimental diabetes, type 1 diabetic condition); assay: Example 1a: blood glucose over 4 h after SGLT2 inhibitor, insulin glargine or combination; format: in vivo, rat; settings: four hours after administration, Cpd. A 10 mg/kg oral, insulin glargine 1.5 IU/animal s.c.; for reduction of blood glucose versus control: combination at the same doses, 3-h fasted STZ rats; for statistical difference of blood glucose versus control: combination same doses
Procedure: All experimental protocols concerning the use of laboratory animals were reviewed by a federal Ethics Committee and approved by governmental authorities. Two weeks before the study starts, the rats were pretreated with a single dose of 60 mg/kg i.p. of streptozotocin to induced experimental diabetes, resembling a type 1 diabetic condition. During the study blood glucose was followed over 4 h in male, 3-h fasted Sprague-Dawley rats (Crl:CD) with an age of 8-9 weeks at the start of the study. A pre-dose blood sample was obtained by tail bleed for randomization and blood glucose was measured with a glucometer 30, 60, 90 min and 2, 3, 4 hours after administration of the insulin and/or the SGLT2 inhibitor. At time point 0 min, the animals (n=4-6 per group) were injected either with insulin glargine or isotonic NaCl subcutaneously. Simultaneously all animals received oral administrations of either vehicle alone (0.5% aqueous hydroxyethylcellulose) or this vehicle containing the SGLT2 inhibitor. The data are presented as mean±S.E.M. Statistical comparison was conducted by repeated measures two-way ANOVA (analysis of variance) followed by Bonferroni post tests for group-wise comparisons. A p value <0.05 was considered to show a statistically significant difference. The term “Cpd. A” denotes the SGLT2 inhibitor compound (1.9) at a dose of 10 mg/kg. Insulin glargine was administered at a dose of 1.5 IU/animal. The term “Cpd. A+Insulin glargine” denotes the combination of the SGLT2 inhibitor compound (1.9) and insulin glargine at the same doses. P values versus control are indicated by asterisks and p values of the monotherapies versus the combination are indicated by crosses (one symbol, p<0.05; two symbols, p<0.01; three symbols, p<0.001). Four hours after administration, the SGLT2 inhibitor had reduced blood glucose by 19% versus control, and insulin glargine by 27%.

[3] = system: the diabetic; settings: metformin on its own; cited from earlier work
[4] = system: streptozotocin-pretreated male Sprague-Dawley rats (experimental diabetes, type 1 diabetic condition); assay: Example 2a: blood glucose over 4 h, SGLT2 inhibitor plus low-dose insulin glargine versus high-dose insulin glargine; format: in vivo, rat; settings: for reduction of blood glucose versus control: four hours after administration; for statistical difference of blood glucose versus control: four hours
Procedure: All experimental protocols concerning the use of laboratory animals were reviewed by a federal Ethics Committee and approved by governmental authorities. Two weeks before the study starts, the rats were pretreated with a single dose of 60 mg/kg i.p. of streptozotocin to induced experimental diabetes, resembling a type 1 diabetic condition. During the study blood glucose was followed over 4 h in male, 3-h fasted Sprague-Dawley rats (Crl:CD) with an age of 8-9 weeks at the start of the study. A pre-dose blood sample was obtained by tail bleed for randomization and blood glucose was measured with a glucometer 30, 60, 90 min and 2, 3, 4 h after administration of the insulin alone or together with the SGLT2 inhibitor. At time point 0 min, the animals (n=4-6 per group) were injected either with insulin glargine or isotonic NaCl subcutaneously. Simultaneously all animals received oral administrations of either vehicle alone (0.5% aqueous hydroxyethylcellulose) or this vehicle containing the SGLT2 inhibitor. The data are presented as mean±S.E.M. Statistical comparison was conducted by repeated measures two-way ANOVA followed by Bonferroni post tests for group-wise comparisons. A p value <0.05 was considered to show a statistically significant difference. Insulin glargine was administered at a dose of 1.5 μl/animal (low-dose) or 6 μl/animal (high-dose). The term “Cpd. A+low-dose insulin glargine” denotes the combination of the SGLT2 inhibitor at a dose of 10 mg/kg and insulin glargine at a dose of 1.5 μl/animal. P values versus control are indicated by asterisks and p values of the low-dose insulin glargine versus the combination or the high-dose insulin glargine are indicated by crosses (one symbol, p<0.05; two symbols, p<0.01; three symbols, p<0.001). […] The combination had decreased blood glucose by 53%, which was in the range of the high-dose insulin glargine with a decrease of 47%.

[5] = system: streptozotocin-pretreated male Sprague-Dawley rats (experimental diabetes, type 1 diabetic condition); assay: Example 2b: blood glucose over 6 h, SGLT2 inhibitor plus low-dose insulin glargine versus high-dose insulin glargine; format: in vivo, rat; settings: for reduction of blood glucose versus control: six hours after administration; for statistical difference of blood glucose versus control: six hours
Procedure: All experimental protocols concerning the use of laboratory animals were reviewed by a federal Ethics Committee and approved by governmental authorities. Two weeks before the study starts, the rats were pretreated with a single dose of 60 mg/kg i.p. of streptozotocin to induced experimental diabetes, resembling a type 1 diabetic condition. During the study blood glucose was followed over 6 h in male, 3-h fasted Sprague-Dawley rats (Crl:CD) with an age of 8-9 weeks at the start of the study. A pre-dose blood sample was obtained by tail bleed for randomization and blood glucose was measured with a glucometer 30, 60, 90 min and 2, 3, 4, 5, 6 h after administration of insulin alone or together with the SGLT2 inhibitor. At time point 0 min, the animals (n=4-6 per group) were injected either with insulin glargine or isotonic NaCl subcutaneously. Simultaneously all animals received oral administrations of either vehicle alone (0.5% aqueous hydroxyethylcellulose) or this vehicle containing the SGLT2 inhibitor. The data are presented as mean±S.E.M. Statistical comparison was conducted by repeated measures two-way ANOVA followed by Bonferroni post tests for group-wise comparisons. A p value <0.05 was considered to show a statistically significant difference. Insulin glargine was administered at a dose of 1.5 μl/animal (low-dose) or 6 IU/animal (high-dose). The term “Cpd. A+low-dose insulin glargine” denotes the combination of the SGLT2 inhibitor at a dose of 10 mg/kg and insulin glargine at a dose of 1.5 μl/animal. P values versus control are indicated by asterisks and p values of the low-dose insulin glargine versus the combination or the high-dose insulin glargine are indicated by crosses (one symbol, p<0.05; two symbols, p<0.01; three symbols, p<0.001). […] The combination had decreased blood glucose by 49%, which was in the range of the high-dose insulin glargine with a decrease of 44%.

[6] = low-dose insulin glargine 1.5 μl/animal s.c., alone or with Cpd. A 10 mg/kg oral
[7] = low-dose insulin glargine 1.5 μl/animal, alone or with Cpd. A 10 mg/kg

Compound: OC[C@H]1O[C@@H](c2ccc(Cl)c(Cc3ccc(O[C@H]4CCOC4)cc3)c2)[C@H](O)[C@@H](O)[C@@H]1O [compound (1.9), 1-chloro-4-(β-D-glucopyranos-1-yl)-2-[4-((S)-tetrahydrofuran-3-yloxy)-benzyl]-benzene]
- reduction of blood glucose versus control [1]: 13%
- statistical difference of blood glucose versus control [1]: did not show statistically significant differences versus control
- reduction of blood glucose versus control [2]: 19%
- statistical difference of blood glucose versus control [2]: did not show statistically significant differences versus control

Compound: CN(C)C(=N)N=C(N)N [metformin]
- average improvement in the HbA1c value [3]: 1.0-1.5%

Compound: Gly^A21, Arg^B31, Arg^B32 human insulin [insulin glargine]
- reduction of blood glucose versus control ([4]; high-dose insulin glargine 6 μl/animal s.c.): 47%
- reduction of blood glucose versus control [4, 6]: 27%
- statistical difference of blood glucose versus control ([4]; high-dose insulin glargine 6 μl/animal): significantly different from the control
- statistical difference of blood glucose versus control [4, 7]: without showing statistically significant difference
- reduction of blood glucose versus control [1]: 22%
- statistical difference of blood glucose versus control [1]: did not show statistically significant differences versus control
- reduction of blood glucose versus control [2]: 27%
- statistical difference of blood glucose versus control [2]: did not show statistically significant differences versus control
- reduction of blood glucose versus control ([5]; high-dose insulin glargine 6 IU/animal s.c.): 44%
- reduction of blood glucose versus control [5, 6]: 22%
- statistical difference of blood glucose versus control ([5]; high-dose insulin glargine 6 IU/animal): significantly different from the control
- statistical difference of blood glucose versus control [5, 7]: without showing statistically significant difference

Source: US20220152159A1, “PHARMACEUTICAL COMPOSITION, METHODS FOR TREATING AND USES THEREOF” (Boehringer Ingelheim International GmbH, priority 2010, published 2022)
